Drawing on BindingDB's records for doi:10.1021/acs.jmedchem.9b01317 (Fudan University, 2020), this text covers IC50 for 1 compound.

This experiment in a line: Inhibition of RIPK3 in human HT-29 cells assessed as reduction in TSZ-induced necroptosis by Cell Titer Glo assay.

The structures appear in SMILES notation.

Consider `CC(=O)O[C@@H]1CCC(C)(C)[C@H]2C[C@@H](O)C3=C[C@@H](CCC(=O)[C@@]21C)[C@H](C)C3=O`, for which the IC50 turned out to be 0.2 µM.
